Results published in patent publication US20040208842A1, “Antimicrobial cleansing compositions and methods of use” (priority 2001, published 2004).
Values joined by “and” are separate entries in the source; they are usually repeats but may differ in a detail not shown here. Equal values may be shown once.

Key:
Pseudomonas aeruginosa [1] = assay: Minimal Bactericidal Concentration (MBC) of EDTA and neomycin in 50 mM Tris; assay type: cell-based; conditions: Ps. aeruginosa
From the text: (§1) The organisms of this study were isolated from human burn patients. They included strains of methicillin resistant Staphylococcus aureus, and vancomycin resistant strains of Pseudomonas aeruginosa and Enterococcus faecalis. The bacterial isolates were propagated in or on Brain Heart Infusion broth (BHI), Mueller-Hinton Broth (MHB), blood agar (BA), Mueller-Hinton agar (MHA), enterococcus agar (EA), or 2× nutrient agar (2×NA).

Enterococcus faecalis [2] = assay: as above; assay type: cell-based
From the text: as §1

Staphylococcus aureus [3] = assay: as above; assay type: cell-based; conditions: Staph. aureus
From the text: as §1

Pseudomonas aeruginosa [4] = assay: MIC (broth-dilution microtiter) and FIC/isobologram (microtiter checkerboard) of EDTA-Tris and antibiotics; assay type: cell-based; conditions: Ps. aeruginosa
Method: (§2) Agents and Chem. 210-217. (1967) and Sparks et al., Vet. Res. Comm. 18, 241-249 (1994), incorporated herein by reference in their entireties.
(§3) Then 0.05 ml of an 18-hour old culture of a test organism, containing 10^6 colony-forming units (CFU)/ml, was added to each well. Controls for the culture and media were included in each plate. Plates were covered and incubated at 37° Celsius for 18-24 hours.
(§4) To generate isobolograms, FICs of the two test solutions were plotted individually on the x-axis and y-axis to determine the effect of combining the two test solutions on bacterial growth. A line that curves away from the zero point and the coordinates indicates antagonism.
(§5) A numerical score or fractional inhibitory concentration (FIC) index was determined. The FIC index is equal to the sum of the values of FIC for the individual drugs: [formula]
(§6) An FIC index greater than 1.0 indicates an antagonistic interaction, an FIC index of 1.0 indicates addition, and an FIC index of less than or equal to 0.5 indicates synergism between the two test agents.
as §1

Enterococcus faecalis [5] = assay: as above; assay type: cell-based; conditions: Ent. faecalis
Method: as §2, §3, §4, §5, §6, §1

Staphylococcus aureus [6] = assay: as above; assay type: cell-based; conditions: Staph. aureus
Method: as §2, §3, §4, §5, §6, §1

Pseudomonas aeruginosa [7] = assay: Antibiotic resistance profile by disc diffusion on MHA; assay type: cell-based; conditions: human burn isolate; also: key: R = resistant; I = intermediate; S = sensitive
Method: as §1
(§7) Antibiotic resistance profiles were determined by the disc diffusion method on MHA (5).

Enterococcus faecalis [8] = assay: as above; assay type: cell-based; conditions: human burn isolate
Method: as §1, §7

Staphylococcus aureus [9] = assay: as above; assay type: cell-based; conditions: human burn isolate
Method: as §1, §7

Proteus mirabilis = assay: MIC and MBC of cleanser formulation and components; assay type: cell-based; conditions: P. mirabilis; cocamidopropyl betaine alone
Method: (§8) The solution containing 10% cocamidopropyl betaine was selected for further testing. The formulation was tested against Pseudomonas aeruginosa, Proteus mirabilis, […] coli, Staphylococcus intermedius, Malassezia pachydermatis, and Candida albicans.

Malassezia pachydermatis = assay: MIC and MBC of cleanser formulation and components; assay type: cell-based; conditions: M. pachydermatis; cocamidopropyl betaine alone
Method: as §8

[10] = tested on: Staphylococcus intermedius; assay: MIC and MBC of cleanser formulation and components; assay type: cell-based; conditions: S. intermedius; cocamidopropyl betaine alone
Method: as §8

Pseudomonas aeruginosa [11] = assay: MIC and MBC of cleanser formulation and components; assay type: cell-based; conditions: P. aeruginosa; cocamidopropyl betaine alone
Method: as §8

Candida albicans = assay: MIC and MBC of cleanser formulation and components; assay type: cell-based; conditions: C. albicans; cocamidopropyl betaine alone
Method: as §8

E. coli = assay: MIC and MBC of cleanser formulation and components; assay type: cell-based, Escherichia coli; conditions: cocamidopropyl betaine alone
Method: as §8
For Antibiotic resistance profile in this document: key: R = resistant; I = intermediate; S = sensitive.

In the case of neomycin, the “MBC of Neomycin, Individually Administered” value (Pseudomonas aeruginosa [1]) is reported as 5000 µg/mL, the “MBC of Neomycin, Co-administered” value (Pseudomonas aeruginosa [1]; with EDTA) is reported as 40 µg/mL and the “MBC of Neomycin, Individually Administered” value (Enterococcus faecalis [2]; En. faecalis, in 50 mM Tris) is reported as 25000 µg/mL. The “MBC of Neomycin, Co-administered” value (Enterococcus faecalis [2]; En. faecalis, with EDTA, in 50 mM Tris) was 6250 µg/mL, the “Decrease of MBC value when EDTA and neomycin combined compared to individually administered” value (Enterococcus faecalis [2]; Ent. faecalis) was 75% and the “Decrease of MBC value when EDTA and neomycin combined compared to individually administered” value (Staphylococcus aureus [3]) was “about 50% and 50%”. For the same molecule, the “MBC of Neomycin, Individually Administered” value (Staphylococcus aureus [3]; in 50 mM Tris) was 3130 µg/mL, the “MBC of Neomycin, Co-administered” value (Staphylococcus aureus [3]; with EDTA, in 50 mM Tris) was 1560 µg/mL and the “MIC, antibiotic Individually Administered” value (Pseudomonas aeruginosa [4]; antibiotic alone) was 1000 µg/mL. For the same molecule, the “MIC, antibiotic Individually Administered” value (Enterococcus faecalis [5]; antibiotic alone) was 3130 µg/mL, the “MIC, antibiotic Individually Administered” value (Staphylococcus aureus [6]; antibiotic alone) was 3130 µg/mL and the Antibiotic resistance profile (Pseudomonas aeruginosa [7]) was “R”. For the same molecule, the Antibiotic resistance profile (Enterococcus faecalis [8]) was “R” and the Antibiotic resistance profile (Staphylococcus aureus [9]) was “R”.

For gentamicin [Gm], the Antibiotic resistance profile (Pseudomonas aeruginosa [7]) was “I”, the Antibiotic resistance profile (Enterococcus faecalis [8]) was “R” and the Antibiotic resistance profile (Staphylococcus aureus [9]) was “S”.

With cocamidopropyl betaine the MBC (Proteus mirabilis) was 50% of stock solution, the MIC (Proteus mirabilis) was 25% of stock solution and the MBC (Malassezia pachydermatis) was 0.3% of stock solution. The MIC (Malassezia pachydermatis) was 0.1% of stock solution, the MBC [10] was 0.1% of stock solution and the MIC [10] was 0.1% of stock solution. The MBC (Pseudomonas aeruginosa [11]) was 50% of stock solution, the MIC (Pseudomonas aeruginosa [11]) was 25% of stock solution and the MBC (Candida albicans) was 0.3% of stock solution. The MIC (Candida albicans) was 0.1% of stock solution, the MBC (E. coli) was 50% of stock solution and the MIC (E. coli) was 25% of stock solution.

`CN[C@H](CC(C)C)C(=O)N[C@H]1C(=O)N[C@@H](CC(N)=O)C(=O)N[C@H]2C(=O)N[C@H]3C(=O)N[C@H](C(=O)N[C@H](C(=O)O)c4cc(O)cc(O)c4-c4cc3ccc4O)[C@H](O)c3ccc(c(Cl)c3)Oc3cc2cc(c3O[C@@H]2O[C@H](CO)[C@@H](O)[C@H](O)[C@H]2O[C@H]2C[C@](C)(N)[C@H](O)[C@H](C)O2)Oc2ccc(cc2Cl)[C@H]1O` [Va, vancomycin] was tested, and the Antibiotic resistance profile (Pseudomonas aeruginosa [7]) was “R”, the Antibiotic resistance profile (Enterococcus faecalis [8]) was “R” and the Antibiotic resistance profile (Staphylococcus aureus [9]) was “S”.

With `O=C(O)CN(CCN(CC(=O)O)CC(=O)O)CC(=O)O` [EDTA, ethylenediamenetetracetic acid] the “MIC, EDTA Individually Administered” value (Pseudomonas aeruginosa [4]; EDTA in 50 mM Tris alone) was 1250 µM, the “MIC, EDTA Individually Administered” value (Enterococcus faecalis [5]; EDTA in 50 mM Tris alone) was 15630 µM and the “MIC, EDTA Individually Administered” value (Staphylococcus aureus [6]; EDTA in 50 mM Tris alone) was 1000 µM.
